Data from ChEMBL document CHEMBL1140936, “Topological polar surface area defines substrate transport by multidrug resistance associated protein 1 (MRP1/ABCC1)” (J Med Chem, 2009).

Experiments:
[1] = target: T1, Multidrug resistance-associated protein 1 (Homo sapiens, UniProt P33527); assay: Activity of MRP1
[2] = target: T1, Multidrug resistance-associated protein 1; assay: Activity at MRP1 in human HeLa T5 cells assessed as ATP-dependent drug transport at 50 nM measured per mg of protein; type: cell-based; details: 0.05 µM

T1 sequence (P33527 whole entry): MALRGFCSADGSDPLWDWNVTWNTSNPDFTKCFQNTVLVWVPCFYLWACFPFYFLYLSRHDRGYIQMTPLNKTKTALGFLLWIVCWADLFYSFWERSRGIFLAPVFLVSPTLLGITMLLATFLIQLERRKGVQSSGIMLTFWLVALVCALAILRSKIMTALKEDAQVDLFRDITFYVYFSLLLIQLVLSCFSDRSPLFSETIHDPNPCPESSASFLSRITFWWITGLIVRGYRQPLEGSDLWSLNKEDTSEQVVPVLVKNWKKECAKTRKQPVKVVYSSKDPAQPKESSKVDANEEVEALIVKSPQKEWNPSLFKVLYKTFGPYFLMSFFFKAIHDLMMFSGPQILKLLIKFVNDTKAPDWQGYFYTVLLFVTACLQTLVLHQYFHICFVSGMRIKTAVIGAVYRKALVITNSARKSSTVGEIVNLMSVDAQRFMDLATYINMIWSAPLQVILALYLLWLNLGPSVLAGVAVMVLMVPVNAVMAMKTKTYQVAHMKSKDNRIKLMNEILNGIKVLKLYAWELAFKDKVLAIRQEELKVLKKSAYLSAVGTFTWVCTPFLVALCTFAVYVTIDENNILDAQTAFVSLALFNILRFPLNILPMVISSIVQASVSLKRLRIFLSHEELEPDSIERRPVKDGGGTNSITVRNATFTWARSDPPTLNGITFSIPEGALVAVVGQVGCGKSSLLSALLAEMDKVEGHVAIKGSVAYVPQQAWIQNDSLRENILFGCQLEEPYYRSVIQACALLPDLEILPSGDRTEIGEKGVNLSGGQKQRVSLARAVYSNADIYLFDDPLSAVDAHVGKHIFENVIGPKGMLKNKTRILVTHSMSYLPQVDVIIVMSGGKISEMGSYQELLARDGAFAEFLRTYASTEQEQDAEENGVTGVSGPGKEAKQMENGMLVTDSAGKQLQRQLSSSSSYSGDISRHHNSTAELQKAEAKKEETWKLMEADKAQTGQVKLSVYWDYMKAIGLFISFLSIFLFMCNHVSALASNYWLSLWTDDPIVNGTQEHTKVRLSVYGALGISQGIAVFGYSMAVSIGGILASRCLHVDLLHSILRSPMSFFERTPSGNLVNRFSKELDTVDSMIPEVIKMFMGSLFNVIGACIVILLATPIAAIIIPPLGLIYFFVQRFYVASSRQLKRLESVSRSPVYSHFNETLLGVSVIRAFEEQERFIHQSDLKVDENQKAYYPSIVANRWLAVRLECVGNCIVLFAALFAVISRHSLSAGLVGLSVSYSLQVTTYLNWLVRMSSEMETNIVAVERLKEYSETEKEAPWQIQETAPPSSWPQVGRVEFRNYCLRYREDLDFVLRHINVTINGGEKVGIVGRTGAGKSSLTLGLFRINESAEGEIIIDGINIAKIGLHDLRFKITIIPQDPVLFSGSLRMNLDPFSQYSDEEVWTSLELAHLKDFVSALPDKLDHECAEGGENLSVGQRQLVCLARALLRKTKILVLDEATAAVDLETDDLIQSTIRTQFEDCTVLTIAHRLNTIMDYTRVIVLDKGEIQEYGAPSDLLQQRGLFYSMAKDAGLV

| Km [1] [µM] | Activity [2] [pmol/min] | Structure (SMILES) |
| --- | --- | --- |
| 12 | – | Cc1ccc(N(CC(=O)O)CC(=O)O)c(OCCOc2cc(-c3c4cc(Cl)c(=O)cc-4oc4cc(O)c(Cl)cc34)ccc2N(CC(=O)O)CC(=O)O)c1 |
| – | 8 | CCCCC/C=C\C\C=C/C=C/C=C/[C@@H](SC[C@H](N)C(=O)O)[C@@H](O)CCCC(=O)O [LEUKOTRIEN E4] |
| – | 15 | CCCCC/C=C\C\C=C/C=C/C=C/[C@@H](SC[C@H](N)C(=O)NCC(=O)O)[C@@H](O)CCCC(=O)O [LEUKOTRIENE D4] |
